Experimental data published in patent US7166705B2 (Schering Corporation, priority 1999, dated 2007).

Assays:
SP9144 [1] = biological target: T1, SP9144 (Homo sapiens, UniProt Q9H3N8); assay: FLIPR intracellular Ca2+ assay, HEK-293-EBNA cells transfected with pCR3.1-SP9144; assay type: cell-based; details: for rank order of potency for activation of SP9144: transfected HEK-293-EBNA cells; for activation of SP9144 (change in intracellular Ca++, Fluo3 fluorescence): HEK-293-EBNA cells transfected with pCR3.1-SP9144, drugs 1×10^−4 M to 1×10^−9 M
T1 construct: expressed in transfected cells; host or cells: HEK-293-EBNA / HEK-293 cells, transient transfection with pCR3.1-SP9144
T1 sequence (Q9H3N8 whole entry): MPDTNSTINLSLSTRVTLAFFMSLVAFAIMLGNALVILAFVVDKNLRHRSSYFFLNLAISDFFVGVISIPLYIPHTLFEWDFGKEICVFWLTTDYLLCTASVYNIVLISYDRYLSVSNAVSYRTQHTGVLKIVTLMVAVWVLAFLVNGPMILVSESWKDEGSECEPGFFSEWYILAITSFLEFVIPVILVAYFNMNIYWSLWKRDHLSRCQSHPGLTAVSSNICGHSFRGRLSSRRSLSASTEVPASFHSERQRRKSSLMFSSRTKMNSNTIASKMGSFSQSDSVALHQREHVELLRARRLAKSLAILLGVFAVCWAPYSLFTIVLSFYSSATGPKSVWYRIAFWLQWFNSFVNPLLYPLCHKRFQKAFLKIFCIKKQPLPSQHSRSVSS
Experimental: (§1) 24 hours after transfection, cells were harvested and plated at 25,000 cells/well in clear bottom, black walled 96 well plates precoated with poly-D-lysine (Beckton-Dickenson) and cultured overnight in DMEM/10% FBS. For the assay, growth media was removed and replaced with 50 μl/well dye loading medium containing DMEM, 10% FBS, 20 mM HEPES pH 7.4, 2.5 mM probenecid (Sigma), […] Fluo3-AM (Sigma) (dissolved in 10% pluronic acid in DMSO). After 1 hr. at 37° C., the cell plates were washed 4 times with 250 μl Hanks Balanced Salt Solution (HBSS) lacking phenol red and containing 20 mM HEPES, 2.5 mM probenecid, and 0.1% BSA (wash buffer). A final volume of 100 μl/well of wash buffer was added to the plates, and the plates were placed into a Fluorescent Imaging Plate Reader (FLIPR, Molecular Devices) equilibrated to 37° C. […] Fluorescence was monitored once per second for 1 minute, and every 6 seconds for 2 minutes thereafter. After a 10 sec baseline measurement was established, drugs at 3× final concentration (1×10^−4 M to 1×10^−9 M) were added in a volume of 50 μl while the fluorescence continued to be monitored. Values extracted for data analysis represented the maximal fluorescence value minus the minimal fluorescence value detected following the drug addition. Drug stock solutions were initially dissolved in water (or DMSO) and diluted to 3× final concentration using wash buffer.

SP9144 [2] = biological target: T1, SP9144; assay: [3H]histamine binding assay (saturation and competition), membranes of HEK-293 cells transfected with SP9144; details: for rank order of potency for blocking [3H]-histamine binding: competition with 18 nM [3H]histamine, 70 μg membrane protein; for block of [3H]-histamine binding: at concentrations of 10 μM
Experimental: (§2) Membrane preparation: HEK-293 cells transfected with SP9144 as described above were harvested by incubating in 5 mM EDTA/phosphate-buffered saline followed by repeated pipetting. The cells were centrifuged 5 min at 1000×g. The EDTA/PBS was decanted and an equal volume of ice-cold 50 mM Tris-HCl, pH 7.5, was added and cells were broken up with a Polytron (PT10 tip, setting 5, 30 sec). Nuclei and unbroken cells were sedimented at 1000×g for 10 min and then the supernatant was centrifuged at 50,000×g for 10 min. The supernatant was decanted, the pellet was resuspended by Polytron, a sample was taken for protein assay (bicinchoninic acid, Pierce), and the tissue was again centrifuged at 50,000×g. Pellets were stored frozen at −20° C.
(§3) Samples were filtered on GF/B filters and washed thrice with 2 ml of cold Tris buffer. Filters were dried in a microwave oven, impregnated with Meltilex wax scintillant, and counted at 45% efficiency. […] Curves were fit to the data with Prism (GraphPad Software) nonlinear least-squares curve-fitting program and Ki values were derived from IC50 values according to Cheng and Prusoff (Cheng, Y. C., and Prusoff, W. H. (1973) Relationship between the inhibition constant (Ki) and the concentration of inhibitor which causes 50 per cent inhibition (IC50) of an enzymatic reaction. Biochem. Pharmacol. 22, 3099–3108).

mock transfected cells = test system: mock transfected cells
Experimental: as §1

[3] = test system: untransfected HEK-293 cells; assay: [3H]histamine binding to membranes from untransfected HEK-293 cells
Experimental: as §2, §3

SMILES	rank order of potency for activation of SP9144 (SP9144 [1]; FLIPR Ca++ assay)	activation of SP9144 (change in intracellular Ca++, Fluo3 fluorescence) (SP9144 [1])	rank order of potency for blocking [3H]-histamine binding (SP9144 [2])	further results
C[C@@H](N)Cc1c[nH]cn1 [(R) α-methylhistamine]	Histamine>Nα-methylhistamine>(R) α-methylhistamine>>(S)α-methylhistamine (inactive)	able to activate SP9144	imetit>clobenpropit>histamine>impromidine>Na-methylhistamine>burimamide>(R)-a-methylhistamine>thioperimide>>(S)-a-methylhistamine	–
NC(=NCc1ccc(Cl)cc1)SCCCc1cnc[nH]1 [clobenpropit]	clobenpropit>imetit>impromidine>buramimide	able to activate SP9144, albeit with reduced efficacy	imetit>clobenpropit>histamine>impromidine>Na-methylhistamine>burimamide>(R)-a-methylhistamine>thioperimide>>(S)-a-methylhistamine	–
CNCCc1c[nH]cn1 [Nα-methylhistamine]	Histamine>Nα-methylhistamine>(R) α-methylhistamine>>(S)α-methylhistamine (inactive)	able to activate SP9144	imetit>clobenpropit>histamine>impromidine>Na-methylhistamine>burimamide>(R)-a-methylhistamine>thioperimide>>(S)-a-methylhistamine	–
S=C(NC1CCCCC1)N1CCC(c2cnc[nH]2)CC1 [thioperimide]	–	no activation of SP9144	imetit>clobenpropit>histamine>impromidine>Na-methylhistamine>burimamide>(R)-a-methylhistamine>thioperimide>>(S)-a-methylhistamine	block of the activation of SP9144 by (R)α-methylhistamine (SP9144 [1]; FLIPR Ca++ assay, antagonist mode): could be blocked in a dose dependent manner
NCCc1c[nH]c2ccc(O)cc12 [serotonin]	–	not by other biogenic amines	–	–
Cc1nc[nH]c1CSCCN=C(N)NCCCc1cnc[nH]1 [impromidine]	clobenpropit>imetit>impromidine>buramimide	able to activate SP9144, albeit with reduced efficacy	imetit>clobenpropit>histamine>impromidine>Na-methylhistamine>burimamide>(R)-a-methylhistamine>thioperimide>>(S)-a-methylhistamine	–
NCCc1c[nH]cn1 [histamine]	Histamine>Nα-methylhistamine>(R) α-methylhistamine>>(S)α-methylhistamine (inactive)	specifically activated	imetit>clobenpropit>histamine>impromidine>Na-methylhistamine>burimamide>(R)-a-methylhistamine>thioperimide>>(S)-a-methylhistamine	activation by histamine in mock transfected cells (mock transfected cells): not observed
NCCc1c[nH]cn1 [[^3H]-Histamine]	–	–	–	specific binding of [3H]-histamine to membranes (SP9144 [2]; membranes from HEK-293 cells transfected with SP9144 DNA): bound specifically; specific binding of [3H]-histamine to membranes [3]: not to membranes from untransfected HEK-293 cells
C[C@H](N)Cc1c[nH]cn1 [(S)α-methylhistamine]	Histamine>Nα-methylhistamine>(R) α-methylhistamine>>(S)α-methylhistamine (inactive)	inactive	imetit>clobenpropit>histamine>impromidine>Na-methylhistamine>burimamide>(R)-a-methylhistamine>thioperimide>>(S)-a-methylhistamine	–
NCCc1ccc(O)c(O)c1 [dopamine]	–	not by other biogenic amines	–	–
CN(C)CCC(c1ccc(Cl)cc1)c1ccccn1 (centres unmarked) [chlorphenirimine]	–	completely inactive	–	block of [3H]-histamine binding (SP9144 [2]): not able to block
N=C(N)SCCc1cnc[nH]1 [imetit]	clobenpropit>imetit>impromidine>buramimide	able to activate SP9144, albeit with reduced efficacy	imetit>clobenpropit>histamine>impromidine>Na-methylhistamine>burimamide>(R)-a-methylhistamine>thioperimide>>(S)-a-methylhistamine	–
CNC(=S)NCCCCc1cnc[nH]1 [buramimide]	clobenpropit>imetit>impromidine>buramimide	able to activate SP9144, albeit with reduced efficacy	imetit>clobenpropit>histamine>impromidine>Na-methylhistamine>burimamide>(R)-a-methylhistamine>thioperimide>>(S)-a-methylhistamine	–
CN/C(=N/CCSCc1nc[nH]c1C)NC#N [cimetidine]	–	completely inactive	–	block of [3H]-histamine binding (SP9144 [2]): not able to block
CNC[C@H](O)c1ccc(O)c(O)c1 [epinephrine]	–	not by other biogenic amines	–	–
NC[C@H](O)c1ccc(O)c(O)c1 [nor-epinephrine]	–	not by other biogenic amines	–	–
